The results in this text go back to patent publication EP0850306B1, “LACCASES WITH AN ALTERED pH ACTIVITY PROFILE” (Novozymes Biotech, Inc., priority 1995, dated 1997).

Read-outs that look alike come from different tables or passages of the source.

Series [1] concerns COc1cc(C=NN=Cc2cc(OC)c(O)c(OC)c2)cc(OC)c1O. In words: Laccase substrate oxidation kinetics (Km, kcat), MtL mutant "T". It counts as biochemical, Myceliophthora thermophila. Particulars: other: 8 mM MES-NaOH buffer, pH 5.3, spectroscopic. As for the experimental part:
(§1) The absorbance at 530 nm is measured over time in a UV-VIS spectrophotometer. One laccase unit (LACU) is defined as the amount of enzyme which oxidizes one µmole of substrate per minute at 30°C.
(§2) Km and kcat are obtained from the initial rate (v), enzyme concentration (E), and substrate concentration (S) in accordance to the equation v = kcat ES/( Km + S) by non-linear regression fitting using the Prizm program (GraphPad, San Diego, CA). […] The O2 concentration in air-saturated buffer solution is assumed as the same in plain water (0.28 mM).

The target of series [2] is T1, Myceliophthora thermophila laccase (MtL, lcc-1), wild type (pRaMB17), SEQ ID NOS:26 and 27 (Thermothelomyces thermophilus, UniProt G2QG31).
T1 sequence (G2QG31 48-602): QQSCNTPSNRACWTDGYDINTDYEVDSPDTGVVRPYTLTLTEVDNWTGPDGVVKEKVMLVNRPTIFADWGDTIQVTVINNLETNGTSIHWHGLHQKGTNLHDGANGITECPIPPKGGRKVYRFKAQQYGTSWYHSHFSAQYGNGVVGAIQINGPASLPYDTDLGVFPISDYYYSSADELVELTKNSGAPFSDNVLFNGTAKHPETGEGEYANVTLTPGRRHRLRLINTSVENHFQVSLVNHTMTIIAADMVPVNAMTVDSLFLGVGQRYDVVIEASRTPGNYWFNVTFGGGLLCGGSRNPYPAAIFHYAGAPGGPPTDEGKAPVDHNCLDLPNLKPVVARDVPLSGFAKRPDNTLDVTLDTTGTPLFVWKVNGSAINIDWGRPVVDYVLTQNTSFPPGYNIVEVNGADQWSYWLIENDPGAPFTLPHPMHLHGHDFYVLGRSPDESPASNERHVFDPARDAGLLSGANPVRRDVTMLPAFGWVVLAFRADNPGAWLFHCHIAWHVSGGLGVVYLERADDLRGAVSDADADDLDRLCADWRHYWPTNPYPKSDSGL
Put plainly: Laccase substrate oxidation kinetics (Km, kcat), MtL wild type. The series is classed as biochemical. Particulars: 8 mM MES-NaOH buffer, pH 5.3, spectroscopic. As for the experimental part: as §1, §2

Series [3] deals with T2, Myceliophthora thermophila laccase (MtL) mutant "T", V509L/S510E/G511A (pBANe22T) (Thermothelomyces thermophilus, UniProt G2QG31, G554A/S553E/V552L).
T2 sequence (G2QG31 48-602 V552L/S553E/G554A): T1 sequence (G2QG31 48-602)
Put plainly: Laccase substrate oxidation kinetics (Km, kcat), MtL mutant "T". It counts as biochemical. The settings on record: read-out: Km (ABTS); 8 mM MES-NaOH buffer, pH 5.3; spectroscopic. As for the experimental part:
as §1, §2

Series [4] deals with T3, Rhizoctonia solani laccase isozyme 4 (RsL, rsl4), wild type (pJiWa59), SEQ ID NOS:24 and 25 (Thanatephorus cucumeris, UniProt Q02081).
T3 construct: made in house; host or cells: Aspergillus oryzae HowB104
T3 sequence (Q02081 20-531): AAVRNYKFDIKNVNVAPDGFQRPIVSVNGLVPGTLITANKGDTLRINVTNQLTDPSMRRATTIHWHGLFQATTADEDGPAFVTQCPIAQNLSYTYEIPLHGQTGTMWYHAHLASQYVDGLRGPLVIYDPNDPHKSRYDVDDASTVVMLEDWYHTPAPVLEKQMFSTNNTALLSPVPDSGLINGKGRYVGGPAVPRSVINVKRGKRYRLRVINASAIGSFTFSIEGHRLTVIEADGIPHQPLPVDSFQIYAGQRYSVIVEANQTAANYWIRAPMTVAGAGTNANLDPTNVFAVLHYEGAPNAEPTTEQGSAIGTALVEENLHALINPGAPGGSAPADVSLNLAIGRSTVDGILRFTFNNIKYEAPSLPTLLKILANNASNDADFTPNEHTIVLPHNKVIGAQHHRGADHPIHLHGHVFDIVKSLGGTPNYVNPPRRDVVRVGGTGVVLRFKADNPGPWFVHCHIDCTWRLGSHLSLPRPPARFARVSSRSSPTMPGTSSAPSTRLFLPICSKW
Put plainly: Laccase substrate oxidation kinetics (Km, kcat), RsL wild type. It counts as biochemical. Particulars: read-out: Km (ABTS); 8 mM MES-NaOH buffer, pH 5.3; spectroscopic. As for the experimental part:
as §1, §2

Consider “Myceliophthora thermophila laccase (MtL) mutant "T", V509L/S510E/G511A (pBANe22T) (Thermothelomyces thermophilus ATCC 42464; G554A/S553E/V552L)”, for which, in series [1], the Km (as a rule, the concentration of substrate that gives half-maximal velocity) is 0.9 ± 0.2 µM and the kcat (commonly the maximal rate divided by the concentration of active sites) turned out to be 360 ± 20 min⁻¹.

As to `CCn1c(=NN=c2sc3cc(S(=O)(=O)O)ccc3n2CC)sc2cc(S(=O)(=O)O)ccc21` [ABTS, 2,2'-azinobis(3-ethylbenzthiazoline-6-sulfonic acid)], the Km in series [2] (read-out: Km (ABTS)) was found to be 110 ± 20 µM; in series [3], 11 ± 2 µM; in series [4] it was 52 ± 6 µM.

As to `COc1cc(C=NN=Cc2cc(OC)c(O)c(OC)c2)cc(OC)c1O` [SGZ, syringaldazine], in series [2], the “kcat (SGZ)” value came to 4500 ± 200 min⁻¹. Further, in series [2] (read-out: Km (SGZ)), the Michaelis constant (Km) is 1.4 ± 0.2 µM.
